In general, GI50 refers to the concentration giving 50% growth inhibition.

For one data set, the system named is U-251. Put plainly: Anticancer activity against human U-251 cells assessed as cell growth inhibition measured after 48 hrs by sulforhodamine B assay. It is filed as functional. The following applies: Homo sapiens, U-251, 48 h.
The subject of a further data set is OVCAR-3. Put plainly: Anticancer activity against human OVCAR-3 cells assessed as cell growth inhibition measured after 48 hrs by sulforhodamine B assay. It is filed as functional. The following applies: Homo sapiens, OVCAR-3, 48 h. For orientation: In SRB staining, fixed cells bind dye roughly in proportion to their protein.
The next data set concerns 786-0. The data set is described as follows: Anticancer activity against human 786-0 cells assessed as cell growth inhibition measured after 48 hrs by sulforhodamine B assay. As to conditions: Homo sapiens, 786-0, 48 h. It is filed as functional.
The subject of another data set is K562. Put plainly: Anticancer activity against human K562 cells assessed as cell growth inhibition measured after 48 hrs by sulforhodamine B assay. It is filed as functional. The following applies: Homo sapiens, K562, 48 h.
Another data set concerns MCF7. The data set is described as follows: Anticancer activity against human MCF7 cells assessed as cell growth inhibition measured after 48 hrs by sulforhodamine B assay. It is filed as functional. The following applies: Homo sapiens, MCF7, 48 h.
A short description of data set [1]: Cytotoxicity against human HaCaT cells assessed as cell growth inhibition measured after 48 hrs by sulforhodamine B assay. It is filed as cell-based. The following applies: HaCaT cells.
Another data set deals with NCI-H460. Put plainly: Anticancer activity against human NCI-H460 cells assessed as cell growth inhibition measured after 48 hrs by sulforhodamine B assay. It is filed as functional. As to conditions: Homo sapiens, NCI-H460, 48 h.
In a further data set the test system is HT-29. The data set is described as follows: Anticancer activity against human HT-29 cells assessed as cell growth inhibition measured after 48 hrs by sulforhodamine B assay. It is filed as functional. The following applies: Homo sapiens, HT-29, 48 h.
A further data set deals with PC-3. The data set is described as follows: Anticancer activity against human PC-3 cells assessed as cell growth inhibition measured after 48 hrs by sulforhodamine B assay. It is filed as functional. The following applies: Homo sapiens, PC-3, 48 h.

`CC(C)(C)NCc1c(C(=O)O)nn(-c2ccc(Cl)cc2)c1-c1ccc([N+](=O)[O-])cc1`: the GI50 is over 584 µM in the data set with U-251; 162 µM in the data set on OVCAR-3; 104 µM with 786-0; 158 µM in the data set on K562; 550 µM in the data set with MCF7; 141 µM in the data set with NCI-H460. For the same compound, the GI50 in the data set with HT-29 and in the data set on PC-3 was over 584 µM throughout. The GI50 at 48 h in [1] is over 584 µM.
In the case of `COc1ccc(-c2c(CNC(C)(C)C)c(C(=O)O)nn2-c2ccc(Cl)cc2)cc1`, the GI50 with U-251 was 498 µM; in the data set with OVCAR-3 it was 121 µM; in the data set with 786-0, over 605 µM; with K562, over 605 µM; in the data set on MCF7 it was 220 µM; in the data set with NCI-H460, over 605 µM. The 50% growth inhibitory concentration (GI50) with HT-29 and in the data set on PC-3 was over 605 µM throughout. The GI50 at 48 h in data set [1] is 121 µM.
`Cc1ccc(-c2c(CNC(C)(C)C)c(C(=O)O)nn2-c2ccc(Cl)cc2)cc1`: the 50% growth inhibitory concentration (GI50) with U-251, with OVCAR-3, in the data set with 786-0, in the data set with K562, with MCF7 and in the data set with NCI-H460 was over 630 µM each time. The 50% growth inhibitory concentration (GI50) in the data set with HT-29 and in the data set on PC-3 was over 630 µM throughout. Further, the 50% growth inhibitory concentration (GI50) at 48 h in data set [1] is over 630 µM.
As for `CC(C)(C)NCc1c(C(=O)O)nn(-c2ccc(Cl)cc2)c1-c1ccccc1`, the concentration for 50% growth inhibition (GI50) in the data set on U-251 was over 652 µM; in the data set with OVCAR-3, 652 µM; in the data set on 786-0, over 652 µM; with K562, over 652 µM; in the data set on MCF7, 496 µM; in the data set on NCI-H460, over 652 µM. Also, the concentration for 50% growth inhibition (GI50) in the data set on HT-29 and in the data set on PC-3 was over 652 µM each time. Also, the GI50 at 48 h in [1] stood at 175 µM.

Values taken from ChEMBL document CHEMBL4673302, “Efficient synthesis and antitumor evaluation of 4-aminomethyl-N-arylpyrazoles: Discovery of potent and selective agents for ovarian cancer” (Bioorg Med Chem, 2021).
